Measured values as given in the supplement of paper PMC10307832.

Columns and labels:
Assay in all cases: relative viability (nuclei count vs DMSO), 5 days (fraction); higher = more cells survive
[1] = compound: CN[C@@H]1C[C@H]2O[C@@](C)([C@@H]1OC)n1c3ccccc3c3c4c(c5c6ccccc6n2c5c31)C(=O)NC4 [Staurosporine] + CC(C)C[C@H](NC(=O)[C@H](Cc1ccccc1)NC(=O)c1cnccn1)B(O)O [Bortezomib] (partner 0.002 µM)
Outline: (§1)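 The day after seeding in 1536-well plates, lung cancer cell lines were treated by pin tool with a single drug, or with a fixed anchor-drug dose together with five library-drug doses (not always all listed) in √10 steps. After 5 days, a combined fix-and-stain solution (final 0.05% Triton X-100, 1% formaldehyde, 1 ug/ml Hoechst) was added. Nuclei counted on 4× images gave relative viability as treated counts over vehicle counts, reported as the median of duplicate plates.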

[2] = compound: CN[C@@H]1C[C@H]2O[C@@](C)([C@@H]1OC)n1c3ccccc3c3c4c(c5c6ccccc6n2c5c31)C(=O)NC4 [Staurosporine] + COc1cc2c(Oc3ccc(NC(=O)C4(C(=O)Nc5ccc(F)cc5)CC4)cc3F)ccnc2cc1OCCCN1CCOCC1 [Foretinib] (partner 0.25 µM)
Outline: as §1

[3] = compound: CN[C@@H]1C[C@H]2O[C@@](C)([C@@H]1OC)n1c3ccccc3c3c4c(c5c6ccccc6n2c5c31)C(=O)NC4 [Staurosporine] + CS(=O)(=O)CCNCc1ccc(-c2ccc3ncnc(Nc4ccc(OCc5cccc(F)c5)c(Cl)c4)c3c2)o1 [Lapatinib] (partner 2 µM)
Outline: as §1

Sulindac + Palbociclib = compound: CC1=C(CC(=O)O)c2cc(F)ccc2/C1=C\c1ccc([S+](C)[O-])cc1 [Sulindac] + CC(=O)c1c(C)c2cnc(Nc3ccc(N4CCNCC4)cn3)nc2n(C2CCCC2)c1=O [Palbociclib] (partner 0.5 µM)
Outline: as §1

Cell Line	relative viability ([1]; first compound 0.005 µM)	relative viability ([1]; first compound 0.01581 µM)	relative viability ([1]; first compound 0.05 µM)	relative viability ([1]; first compound 0.1581 µM)	relative viability ([1]; first compound 0.5 µM)	relative viability ([2]; first compound 0.005 µM)	relative viability ([2]; first compound 0.01581 µM)	relative viability ([2]; first compound 0.05 µM)	relative viability ([2]; first compound 0.1581 µM)	relative viability ([2]; first compound 0.5 µM)	relative viability ([3]; first compound 0.005 µM)	relative viability ([3]; first compound 0.01581 µM)	relative viability ([3]; first compound 0.05 µM)	relative viability ([3]; first compound 0.1581 µM)	relative viability ([3]; first compound 0.5 µM)	relative viability (Sulindac + Palbociclib; first compound 0.08 µM)	relative viability (Sulindac + Palbociclib; first compound 0.253 µM)	relative viability (Sulindac + Palbociclib; first compound 0.8 µM)	relative viability (Sulindac + Palbociclib; first compound 2.53 µM)	relative viability (Sulindac + Palbociclib; first compound 8 µM)
NCI-H1299	1.1	1.03	0.433	0.255	0.169	0.893	0.352	0.231	0.121	0.132	0.985	0.414	0.326	0.201	0.171					
NCI-H1395						0.943	0.812	0.453	0.416	0.27	0.833	0.551	0.487	0.356	0.376	0.545	0.563	0.708	0.627	0.728
NCI-H1563	0.655	0.571	0.661	0.501	0.438	0.696	0.612	0.575	0.611	0.463	0.71	0.541	0.594	0.539	0.472					
NCI-H1623						0.967	0.643	0.925	0.731	0.341										
NCI-H1648																0.275	0.268		0.242	0.282
NCI-H1703	0.215	0.165	0.11	0.157	0.111	0.303	0.246	0.196	0.2	0.156	0.45	0.313	0.245	0.172	0.151					
NCI-H1792	1.05	0.797	0.372	0.182	0.196						0.992	0.814	0.503	0.199	0.185	0.646	0.734		0.601	0.635
NCI-H1793						0.784		0.474	0.217	0.353	0.829	0.281	0.527	0.216	0.18	0.301	0.375		0.34	0.364
NCI-H1944						0.756		0.431	0.39	0.251	0.849		0.566	0.435	0.304	0.363	0.333	0.338	0.351	0.374
NCI-H2170						1.04		0.866	0.382	0.307	0.289	0.236	0.258	0.197	0.193	0.482	0.402	0.413	0.427	0.38
NCI-H2342						1.01	0.816	0.486	0.516	0.4						0.466	0.482	0.536	0.481	0.56
SK-MES-1						0.626	0.581	0.293	0.333	0.142	0.444	0.31	0.311	0.205	0.185	0.313	0.364	0.353	0.373	0.315
SW 900						0.388	0.331	0.406	0.22	0.144						0.479	0.584			0.496
